Measurements from patent US5610297A, “Peptides ketoamides” (Georgia Tech Research Corp., priority 1995, dated 1997).

Tests used:
[1] = biological target: Calpain II from rabbit muscle; assay: Inhibition of calpain II (Suc-Leu-Tyr-AMC hydrolysis); assay type: biochemical
Method: (§1) Materials and Methods. HEPES, heparin, and A23187 were obtained from Calbiochem. Suc-Leu-Tyr-AMC and chromogenic substrates were obtained from Sigma. Calpain I was purified from human erythrocytes according to the method of Kitahara (Kitahara et al., J. Biochem. 95, 1759-1766) omitting the Blue-Sepharose step. Calpain II from rabbit muscle and cathepsin B were purchased from Sigma. Papain was purchased from Calbiochem.
(§2) Assay of Inhibitory Potency. Peptide α-ketoamides were assayed as reversible enzyme inhibitors. Various concentrations of inhibitors in Me2 SO were added to the assay mixture which contained buffer and substrate. The reaction was started by the addition of the enzyme and the hydrolysis rates were followed spectrophotometrically or fluorimetrically.
(§3) Calpain I from human erythrocytes and calpain II from rabbit were assayed using Suc-Leu-Tyr-AMC [Sasaki et al., J. Biol. Chem. 259, 12489-12494 (1984); incorporated herein by reference], and the AMC (7-amino-4-methylcoumarin) release was followed fluorimetrically (excitation at 380 nm, and emmision at 460 nm). Calpains were assayed in 25 mM Tris pH=8.0, 10 mM CaCl2. Fluorescence was followed using a Gilson FL-1A fluorometer or a Perkin-Elmer 203 Fluorescence spectrometer. Cathepsin B was assayed in 20 mM sodium acetate pH=5.2, 0.5 mM dithiothreitol using Bz-Phe-Val-Arg-p-nitroanilide as substrate. Alternately, cathepsin B was assayed with Z-Arg-Arg-AFC [Barrett and Kirschke, Methods Enzymol. 80, 535-561 (1981); incorporated herein by reference], and the AFC (7-amino-4-trifluoromethylcoumarin) release was followed fluorimetrically (excitation at 400 nm and emmision at 505 nm). Papain was assayed in 100 mM KPO4, 1 mM EDTA, 2.5 mM cysteine pH=6.0 using Bz-Arg-AMC or Bz-Arg-NA [Kanaoka et al., Chem. Plmrm. Bull. 25, 3126-3128 (1977); incorporated herein by reference] as a substrate. The AMC (7-amino-4-methylcoumarin) release was followed fluorimetrically (excitation at 380 nm, and emmision at 460 nm). Enzymatic hydrolysis rates were measured at various substrate and inhibitor concentrations, and KI values were determined by either Lineweaver-Burk plots or Dixon plots.
(§4) A 0.1M Hepes, 0.5M NaCl, pH 7.5 buffer was utilized for human leukocyte elastase (HLE), porcine pancreatic elastase (PPE), chymotrypsin and cathepsin G. A 0.1 Hepes, 0.01M CaCl2, pH 7.5 buffer was utilized for trypsin, plasmin, and coagulation enzymes. A 50 mM Tris-HCl, 2 mM EDTA, 5 mM cysteine, pH 7.5 was used as a buffer for papain. A 88 mM KH2 PO4, 12 mM Na2 HPO4, 1.33 mM EDTA, 2.7 mM cysteine, pH 6.0 solution was used as a buffer for cathepsin B. A 20 mM Hepes, 10 mM CaCl2, 10 mM mercatoethanol, pH 7.2 buffer was utilized for calpain I and calpain II.

cathepsin B = assay: Inhibition of cathepsin B; assay type: biochemical; details: read-out: KI Cath B
Method: as §1, §2, §3, §4

[2] = tested on: Calpain-mediated breakdown of spectrin in platelets; assay: Platelet membrane permeability assay; assay type: cell-based, rat; set-up: unit not given here; details: numeric value, unit not given
Method: Platelet membrane permeability assay. Calpain-mediated breakdown of spectrin was measured by quantitative densitometry of the calpain-specific 150/155 kDa spectrin fragment doublet [see Siman et al., Proc. Natl. Acad. Sci. USA 81, 3572-3576 (1984)]. Platelets were isolated by a modification of the method of Ferrell and Martin [J. Biol. Chem. 264, 20723-20729 (1989)]. Blood (15-20 ml) was drawn from male Sprague-Dawley rats into 1/10th volume of 100 mM EDTA-citrate, and centrifuged 10 minutes at 2000 rpm in a clinical centrifuge at room temperature. […] Platelets were washed once in 15 ml buffer 1, then resuspended to 10^7 cells/ml in buffer 2 (136 mM NaCl, 2.7 mM KCl, 0.42 mM NaH2 PO4, 12 mM NaHCO3, 2mM MgCl, 1 mg/ml BSA (Sigma), 5.6 mM glucose, 20 mM HEPES (Sigma) pH 7.4) and allowed to "rest" for a minimum of 10 minutes at room temperature before use.
Inhibitors were added from stock solutions made fresh in DMSO. 100 μl platelets, suspended to 10^7 cells/ml in buffer 2, were incubated with 1 μl of an inhibitor solution for 5 minutes at room temperature prior to the addition of 2 mM Ca^2+ and 1 uM A23 187. After 10 minutes total exposure to inhibitor (5 minutes exposure to ionophore) at room temperature, platelets were reisolated at 14,000 rpm for 10 sec in a Beckman microfuge, dissolved in SDS-PAGE sample buffer, and heated to 90° C. for 3 minutes.
Samples were subjected to SDS-PAGE in 4-12% gradient mini gels (Novex) and transferred to nitrocellulose (Schleicher and Schuell 0.45 um) by electroblotting. Filters were blocked for 10 minutes in 0.25% gelatin, 1% BSA, 0.25% triton X100, 0.9% NaCl, 10 mM Tris-Cl pH 7.5, incubated overnight in the same solution containing antibody to rat spectrin, washed 3×10 minutes with 10 mM Tris-Cl pH 7.5, 0.5% triton X100, incubated 4 hours in wash buffer plus alkaline phosphatase conjugated goat anti-rabbit antibody (Biorad), and washed as above. Blots were developed using the Biorad AP conjugate substrate kit. Quantitative densitometry was used to obtain values for the intact spectrin bands and the 150/155 kDa breakdown product doublet.

| Compound | Ki [1] [µM] | Ki (cathepsin B) [µM] | platelet (Activity in the Platelet Assay) [2] |
| --- | --- | --- | --- |
| CCNC(=O)C(=O)[C@H](Cc1ccccc1)NC(=O)[C@H](CC(C)C)NC(=O)OCc1ccccc1 [Z--Leu--Phe--CONH--Et, Z-Leu-Phe-CONH-Et] | 0.32 | 6 | 1.7 |
| CCNC(=O)C(=O)[C@H](CC)NC(=O)[C@H](CC(C)C)NC(=O)OCc1ccccc1 [Z--Leu--Abu--CONH--Et, Z-Leu-Abu-CONH-Et] | 0.23 | 2.4 | 1.5 |
| CCCNC(=O)C(=O)C(Cc1ccccc1)NC(=O)C(CC(C)C)NC(=O)OCc1ccccc1 (stereo not drawn) [Z--Leu--Phe--CONH--nPr, Z-Leu-Phe-CONH-nPr] | 0.05 | 3 | 24 |
| CCCCNC(=O)C(=O)C(CC)NC(=O)C(CC(C)C)NC(=O)OCc1ccccc1 (stereo not drawn) [Z--Leu--Abu--CONH--nBu, Z-Leu-Abu-CONH-nBu] | – | 13 | 2.0 |
